According to US11913884B2, “Visible light-activated dyes and methods of use thereof” (William Marsh Rice University, priority 2019, dated 2024):

Columns and labels:
[1] = test system: adipocytes differentiated from 3T3-L1 cells; experiment: Co-localization assay by confocal laser scanning microscopy; assay type: cell-based; settings: 2 μM, 10 mins, after 488-nm laser for 30 s
Description: (§1) Before testing the utility of thio-caged fluorophores for investigating biological systems, the cytotoxicity of SNile Red in adipocytes was evaluated using Cell Counting Kit-8. At a concentration of 4 μM SNile Red, 90% of 3T3-L1 cells remained viable even after 24 hours (FIG. 10). Thio-caged dyes were then used to obtain subcellular structural data via fluorescence imaging of adipocytes. Nile Red and BODIPY are the fluorescent dyes most commonly used for lipid imaging (Corsaro and Pistara, 1998, Spiller et al., 1998, Tang et al., 2013). Confocal laser scanning microscopy (CLSM) was used to determine the specificity of SNile Red localization in adipocytes differentiated from 3T3-L1 cells. For colocalization studies, adipocytes were stained with 2 μM SNile Red and 100 nM BODIPY 493/503 for 10 mins.
3T3-L1 cells were differentiated to adipocytes according to the protocol from ATCC (Chemically-induced differentiation of at CC® CL-173TM (3T3-L1) using single-Component Commercially-available reagents). […]
After incubation of 2 μM SNile Red for 10 min, cells were washed with PBS (pH 7.4) twice and turned to confocal laser scanning microscope (CLSM). […] Differential interference contrast (DIC) and fluorescent images were processed and analyzed using ImageJ. The Pearson's Coefficient was calculated by ImageJ.

[2] = UV-vis absorption and fluorescence spectra of thio-caged and uncaged fluorophores; assay type: physicochemical; settings: DMSO (50 μM)
Description: Encouraged by the excellent photoactivation properties of SNile Red, Lawesson's reagent was employed to introduce thiocarbonyl moieties into several different fluorophores, such as phthalimide (PI), coumarin (Cou) and acridone (ACD), obtaining yields ranging from 20-80% (FIG. 1). Next, characterization of the spectroscopic and photochemical properties of these thiocaged fluorophores and their oxidized products using UV-vis and fluorescence spectroscopies was performed (Table 1). […] Double thiocarbonyl substitution on 4-dimethylaminophthalimide (4-DMAP, FIG. 1) produced an even larger bathochromic shift of 166 nm. […] It was hypothesized that the red-shift and enhanced absorption seen with thiocarbonyl compounds were due to the reduced energy gap between the HOMO-LUMO in these fluorophores. This is consistent with the computational results discussed below. […] To assess the efficiency of photoactivation for the various thio-caged fluorophores, UV-vis and fluorescence spectra were recorded after different irradiation times (FIGS. 4-8).
The ^1H NMR spectroscopic measurements were carried out using a Bruker-600 NMR at 600 MHz with tetramethysilane (TMS) as internal reference. Electrospray ionization (ESI) mass spectra were performed on a Bruker MicroToF ESI LC-MS System in positive-ion mode. The steady-state absorption spectra were obtained with a ThermoFisher Evolution 220 UV-Vis spectrophotometer in 1 cm path length quartz cells. Fluorescence spectra were recorded using spectrophotometer (SPEX FluoroLog-3). Quantum yield in DMSO was measured relative to the fluorescence of Rhodamine B (Φ=0.65) in ethanol or quinine sulfate (Φ=0.55) in 0.5 M·L^−1 H2SO4. FT-IR spectrum was taken on a PerkinElmer Spectrum 100 FT-IR Spectrometers. Confocal fluorescent images of living cells were performed using Nikon A1R-si Laser Scanning Confocal Microscope (Japan), equipped with lasers of 405/488/561/638 nm. STORM images were performed on a NSTORM (Nikon, Japan), featuring a CFI Apo TIRF 100× oil objective (NA 1.49) on an inverted Nikon Ti Eclipse microscope with a quad cube filter (Chroma, zt405/488/561/640 m-TRF), piezo stage, and Perfect Focus System (Nikon) for Z-stability. Light source are hand-held UV lamp, BlueView Transilluminator (470 nm centred, Vernier), Prior Lumen200 with 615/30 filter and 850 LED (Mouser Electronics).

3T3-L1 cells = experiment: CCK-8 assay (cytotoxicity); assay type: cell-based; settings: 4 μM, 24 hours, Cell Counting Kit-8
Description: as §1
3T3-L1 cells were seeded in flat-bottomed 96-well plates, 1×10^4 cells per well, with 200 μL complete culture media for 24 h. […] After 2 hours, the absorbance at 450 nm was read by 96-well plates reader. The viability of […] cells was calculated by the following equation: CV=(As−Ab)/(Ac−Ab)×100%
CV stands for the viability of cells, As, Ac and Ab stand for the absorbance of cells containing SNile Red cell control (0 μM SNile Red) and blank control (wells containing neither cells nor SNile Red).

Q: What does the source list for `CCN(CC)c1ccc2nc3c4ccccc4c(=S)cc-3oc2c1` [SNile Red]?
A: colocalization with BODIPY 493/503 labeling [1]: more than 90%; λem [2]: 616 nm; cells remaining viable (3T3-L1 cells): 90%
